Values quoted from earlier work as cited in article PMC5618157, “The Role of Disulfide Bond Replacements in Analogues of the Tarantula Toxin ProTx-II and Their Effects on Inhibition of the Voltage-Gated Sodium Ion Channel Nav1.7” (Journal of the American Chemical Society, 2017).

Tests used:
Nav1.7 = conditions: read-out: IC50 against Nav1.7
Excerpt: ProTx-II has been the subject of particular interest from researchers as a possible lead for the treatment of chronic nociceptive pain.[4] […] Nav1.7 has been implicated as a target for the treatment of chronic pain after loss-of-function mutations in the corresponding SCN9A gene left their carriers unable to feel pain, with seemingly no ...

mouse model (analgesia) = conditions: injections of ProTx-II
Excerpt: Despite these structural studies, much remains unknown about the mechanism of action of ProTx-II on Nav1.7. […] Instead, studies into the interaction of ProTx-II and HwTx-IV with hNav1.7 proposed that both peptides interact with the domain II voltage-sensing domain (VSD), with ProTx-II also trapping the domain IV VSD in the resting configuration.[38] Mutagenesis experiments on ProTx-II by Park and co-workers,[36] and investiga ...

In the case of ProTx-II, the IC50 (Nav1.7) is listed as 0.3 nM and the “analgesia in a mouse model” value (mouse model (analgesia)) is listed as “failed to elicit analgesia”.
